Measurements as given in ChEMBL document CHEMBL4033677, “Design and synthesis of pyrazolo[3,4-d]pyrimidines: Nitric oxide releasing compounds targeting hepatocellular carcinoma” (Bioorg Med Chem, 2017).

Key:
Type in all cases: functional
786-0 = experiment: Growth inhibition of human 786-0 cells assessed as cell growth at 10^-5 M incubated for 48 hrs by sulforhodamine B assay relative to control; conditions: 786-0, 48 h, read-out: Activity
UO-31 = experiment: Growth inhibition of human UO31 cells assessed as cell growth at 10^-5 M incubated for 48 hrs by sulforhodamine B assay relative to control; conditions: UO-31, 48 h, read-out: Activity
CAKI-1 = experiment: Growth inhibition of human Caki1 cells assessed as cell growth at 10^-5 M incubated for 48 hrs by sulforhodamine B assay relative to control; conditions: CAKI-1, 48 h, read-out: Activity
SW-620 = experiment: Growth inhibition of human SW620 cells assessed as cell growth at 10^-5 M incubated for 48 hrs by sulforhodamine B assay relative to control; conditions: SW-620, 48 h, read-out: Activity
SNB-19 = experiment: Growth inhibition of human SNB19 cells assessed as cell growth at 10^-5 M incubated for 48 hrs by sulforhodamine B assay relative to control; conditions: SNB-19, 48 h, read-out: Activity
MDA-MB-435 = experiment: Growth inhibition of human MDA-MB-435 cells assessed as cell growth at 10^-5 M incubated for 48 hrs by sulforhodamine B assay relative to control; conditions: MDA-MB-435, 48 h, read-out: Activity
K562 = experiment: Growth inhibition of human K562 cells assessed as cell growth at 10^-5 M incubated for 48 hrs by sulforhodamine B assay relative to control; conditions: K562, 48 h, read-out: Activity
NCI/ADR-RES = experiment: Growth inhibition of human NCI/ADR-RES cells assessed as cell growth at 10^-5 M incubated for 48 hrs by sulforhodamine B assay relative to control; conditions: read-out: Activity
MCF7 = experiment: Growth inhibition of human MCF7 cells assessed as cell growth at 10^-5 M incubated for 48 hrs by sulforhodamine B assay relative to control; conditions: MCF7, 48 h, read-out: Activity
COLO 205 = experiment: Growth inhibition of human COLO205 cells assessed as cell growth at 10^-5 M incubated for 48 hrs by sulforhodamine B assay relative to control; conditions: COLO 205, 48 h, read-out: Activity
MOLT-4 = experiment: Growth inhibition of human MOLT4 cells assessed as cell growth at 10^-5 M incubated for 48 hrs by sulforhodamine B assay relative to control; conditions: MOLT-4, 48 h, read-out: Activity
OVCAR-8 = experiment: Growth inhibition of human OVCAR8 cells assessed as cell growth at 10^-5 M incubated for 48 hrs by sulforhodamine B assay relative to control; conditions: OVCAR-8, 48 h, read-out: Activity
SF-295 = experiment: Growth inhibition of human SF295 cells assessed as cell growth at 10^-5 M incubated for 48 hrs by sulforhodamine B assay relative to control; conditions: SF-295, 48 h, read-out: Activity
SK-MEL-2 = experiment: Growth inhibition of human SK-MEL-2 cells assessed as cell growth at 10^-5 M incubated for 48 hrs by sulforhodamine B assay relative to control; conditions: SK-MEL-2, 48 h, read-out: Activity
IGROV-1 = experiment: Growth inhibition of human IGROV1 cells assessed as cell growth at 10^-5 M incubated for 48 hrs by sulforhodamine B assay relative to control; conditions: IGROV-1, 48 h, read-out: Activity
OVCAR-5 = experiment: Growth inhibition of human OVCAR5 cells assessed as cell growth at 10^-5 M incubated for 48 hrs by sulforhodamine B assay relative to control; conditions: OVCAR-5, 48 h, read-out: Activity
MDA-MB-468 = experiment: Growth inhibition of human MDA-MB-468 cells assessed as cell growth at 10^-5 M incubated for 48 hrs by sulforhodamine B assay relative to control; conditions: MDA-MB-468, 48 h, read-out: Activity
SK-MEL-5 = experiment: Growth inhibition of human SK-MEL-5 cells assessed as cell growth at 10^-5 M incubated for 48 hrs by sulforhodamine B assay relative to control; conditions: SK-MEL-5, 48 h, read-out: Activity
ACHN = experiment: Growth inhibition of human ACHN cells assessed as cell growth at 10^-5 M incubated for 48 hrs by sulforhodamine B assay relative to control; conditions: read-out: Activity
NCI-H23 = experiment: Growth inhibition of human NCI-H23 cells assessed as cell growth at 10^-5 M incubated for 48 hrs by sulforhodamine B assay relative to control; conditions: NCI-H23, 48 h, read-out: Activity

SMILES | growth at 10 µM (786-0) [%] | growth at 10 µM (UO-31) [%] | growth at 10 µM (CAKI-1) [%] | growth at 10 µM (SW-620) [%] | growth at 10 µM (SNB-19) [%] | growth at 10 µM (MDA-MB-435) [%] | growth at 10 µM (K562) [%] | growth at 10 µM (NCI/ADR-RES) [%] | growth at 10 µM (MCF7) [%] | growth at 10 µM (COLO 205) [%] | growth at 10 µM (MOLT-4) [%] | growth at 10 µM (OVCAR-8) [%] | growth at 10 µM (SF-295) [%] | growth at 10 µM (SK-MEL-2) [%] | growth at 10 µM (IGROV-1) [%] | growth at 10 µM (OVCAR-5) [%] | growth at 10 µM (MDA-MB-468) [%] | growth at 10 µM (SK-MEL-5) [%] | growth at 10 µM (ACHN) [%] | growth at 10 µM (NCI-H23) [%]
Cc1nc(Nc2ccc(OCCCBr)cc2)c2cnn(-c3ccccc3)c2n1 | 91.6 | 88.2 | 93.6 | 93.3 | 92.6 | 107 | 102 | 92.1 | 82.4 | 106 | 93.6 | 75.7 | 101 | 98 | 90.3 | 100 | 98.9 | 96.2 | 103 | 90.7
BrCCCOc1ccc(Nc2ncnc3c2cnn3-c2ccccc2)cc1 | 106 | 75.8 | 98.2 | 114 | 97.7 | 101 | 105 | 98.3 | 88.8 | 103 | 83.6 | 92.7 | 107 | 98 | 80.5 | 104 | 99.7 | 93 | 96.5 | 91.5
Cc1nc(Nc2ccc(OCCCBr)cc2)c2c(C)nn(-c3ccccc3)c2n1 | 83.6 | 95.7 | 94.8 | 111 | 94.5 | 100 | 100 | 107 | 90.3 | 108 | 92 | 94.6 | 96.3 | 91.5 | 91.8 | 91.4 | 95 | 96.1 | 108 | 97.5
Cc1nn(-c2ccccc2)c2ncnc(Nc3ccc(OCCCBr)cc3)c12 | 64.3 | 92.4 | 92.1 | 108 | 94.7 | 100 | 100 | 102 | 93.8 | 105 | 83.7 | 94.2 | 93 | 84 | 105 | 103 | 95.5 | 86.6 | 109 | 99
